Source: PubChem BioAssay (NCI)
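Compound exposure: 48 hours, 5 concentrations, 96-well plates. GI50: concentration for 50% inhibition of growth. TGI is the concentration that stops growth completely.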

Key:
Test in all cases: DTP human tumour cell line panel, 48 h
DLD-1 colon = test system: DLD-1 colon
KM12 colon = test system: KM12 colon
SNB-19 CNS = test system: SNB-19 CNS
SN12C renal = test system: SN12C renal
XF 498 CNS = test system: XF 498 CNS
SF-539 CNS = test system: SF-539 CNS
A549 NSCLC = test system: A549 NSCLC
CCRF-CEM leukemia = test system: CCRF-CEM leukemia
NCI-H226 lung = test system: NCI-H226 lung
DU-145 prostate = test system: DU-145 prostate
PC-3 prostate = test system: PC-3 prostate

Row | Structure (SMILES) | TGI (DLD-1 colon) | TGI (KM12 colon) | TGI (SNB-19 CNS) | TGI (SN12C renal) | TGI (XF 498 CNS) | TGI (SF-539 CNS) | TGI (A549 NSCLC) | TGI (CCRF-CEM leukemia) | TGI (NCI-H226 lung) | TGI (DU-145 prostate) | TGI (PC-3 prostate) | GI50 (DLD-1 colon) | GI50 (SNB-19 CNS) | GI50 (SF-539 CNS) | GI50 (CCRF-CEM leukemia) | GI50 (NCI-H226 lung)
1 | COc1cc(C2(c3ncc[nH]3)SSSCC2O)ccc1O (centres undefined) | > 100 µM | > 100 µM | > 100 µM | > 100 µM | > 100 µM | > 100 µM | > 100 µM | > 53.6 µM | > 100 µM |  |  |  |  |  |  | 
2 | CCCCCCCCCOCC(COP(=O)([O-])OCC[N+](C)(C)C)OC (centres undefined) | > 100 µM | > 100 µM | > 100 µM | > 100 µM | > 100 µM | > 100 µM | > 100 µM | > 100 µM | > 100 µM |  |  |  |  |  |  | 
3 | CCOC(=O)CC(NC(=O)c1[nH]cnc1/N=N/N(C)C)C(=O)OCC (centres undefined) | > 100 µM | > 100 µM | > 100 µM | > 100 µM |  | > 100 µM | > 100 µM | > 100 µM | > 100 µM |  |  |  |  |  |  | 
4 | C=CCOC(=O)C1=C(C)NC2=N[C@H](CCCCCCCCC)C[C@@H]3CCC1N23 (some centres undefined) |  | > 100 µM | 42 µM | 35.7 µM |  | 38.1 µM | > 100 µM | > 100 µM | 36.6 µM | 67.8 µM | 42.1 µM |  |  |  |  | 
5 | COc1ccc2c(c1)/C(=C\c1c(Cl)[nH]c3ccccc13)C(=O)N2 |  | 15.1 µM | 19.3 µM | 24.7 µM |  | 12.5 µM | 19 µM | 13.4 µM | 70.8 µM | 56.7 µM | 18 µM |  |  |  |  | 
6 | CC(C)=CCC[C@@H](C)C1=C(O)C(Nc2ccccc2Cl)=C(C)C(=O)C1=O |  | 30 µM | > 75 µM | > 75 µM |  | 35.7 µM | > 59.7 µM | > 21.3 µM | 29.3 µM | > 75 µM | > 64.2 µM |  |  |  |  | 
7 | C/C(=N\NC(=O)c1ccccc1O)c1cccc(/C(C)=N/NC(=O)c2ccccc2O)n1.O=S(=O)([O-])[O-].[Fe+2] | > 100 µM | > 100 µM | > 100 µM |  | > 100 µM | > 100 µM | > 100 µM | 5.74 µM | > 100 µM |  |  | > 100 µM | > 100 µM | > 100 µM | 1.42 µM | > 100 µM
8 | Cc1c(N=C/C=C/c2ccccc2)c(=O)n(-c2ccccc2)n1C |  | 77.2 µM | > 100 µM | 43.4 µM |  | 64.4 µM | > 100 µM | 30.1 µM | 38 µM | > 100 µM | > 100 µM |  |  |  |  | 
9 | CCCCc1ccc(Nc2nc(OC)c3ncn(C4CC(O)C(CO)O4)c3n2)cc1 (centres undefined) |  | 32 µM | 34.3 µM | 26.5 µM |  | 29 µM | 39.3 µM | 34.9 µM | 44.5 µM | 37.3 µM | 37.5 µM |  |  |  |  | 
10 | CC(C)C1NC(=O)CC(c2ccccc2)N(N=O)C1c1ccccc1 (centres undefined) | > 100 µM | > 100 µM | > 100 µM | > 100 µM | > 100 µM | > 100 µM | > 100 µM | > 100 µM | > 100 µM |  |  |  |  |  |  | 
11 | O=C1Nc2nccnc2C(=O)N2CCC[C@@H]12 |  | > 100 µM | > 100 µM | > 100 µM |  | > 100 µM | > 100 µM | > 100 µM | > 100 µM | > 100 µM | > 100 µM |  |  |  |  | 
12 | COC(C)(C)/C=C/c1[nH]c2ccccc2c1CC(=O)NCCc1cn(C(c2ccccc2)(c2ccccc2)c2ccccc2)cn1 |  | > 87.3 µM | > 100 µM | 19.2 µM |  | 14.1 µM | > 100 µM | > 100 µM | 10.9 µM | > 89.3 µM | 10.6 µM |  |  |  |  | 
13 | CSCSCC(CO)NC(=O)/C(C)=C\c1c(C)[nH]c(=O)[nH]c1=O (centres undefined) | > 250 µM | > 250 µM | > 250 µM | > 250 µM | > 224 µM | > 250 µM | > 250 µM | > 250 µM | > 250 µM |  |  |  |  |  |  | 
14 | CC(C)C(OC(=O)c1ccc(NCC2=CC(=O)C=CC2=O)cc1)C(C)C |  | 30.5 µM | 53.5 µM | 35.8 µM |  | 4.1 µM | > 73.1 µM | 2.36 µM | 11.7 µM | 65.5 µM | 29.9 µM |  |  |  |  | 
